Data taken from ChEMBL document CHEMBL5321231, “Synthesis, antiviral activity, and computational study of β-d-xylofuranosyl nucleoside phosphonates” (Eur J Med Chem, 2023).
Calls of active or inactive are those of the source. The calls are words filed in the database; no cut-off is given here.

test system: Respiratory syncytial virus; assay: Antiviral activity against RSV A2 strain infected in vervet monkey MA-104 cells assessed as reduction in virus induced cytopathic effect incubated for 6 days by neutral red dye based spectrophotometric analysis; assay type: functional, organism-based; conditions: time 6.0 day

SMILES	Activity
Nc1nc2c(ncn2[C@@H]2O[C@H](CO)[C@H](OCP(=O)(O)O)[C@H]2O)c(=O)[nH]1	inactive
Nc1ncnc2c1ncn2[C@@H]1O[C@H](CO)[C@H](OCP(=O)(O)O)[C@H]1O	inactive

test system: not listed separately; assay: Cytotoxicity against African green monkey Vero 76 cells assessed as reduction in cell viability by neutral red dye based spectrophotometric analysis; assay type: toxicity; conditions: chlorocebus sabaeus

SMILES	CC50
Nc1nc2c(ncn2[C@@H]2O[C@H](CO)[C@H](OCP(=O)(O)O)[C@H]2O)c(=O)[nH]1	> 100 µM
Nc1ncnc2c1ncn2[C@@H]1O[C@H](CO)[C@H](OCP(=O)(O)O)[C@H]1O	> 100 µM

test system: not listed separately; assay: Cytotoxicity against African green monkey Vero 76 cells assessed as reduction in cell viability by visual analysis; assay type: toxicity, cell-based; conditions: chlorocebus sabaeus

SMILES	CC50
Nc1nc2c(ncn2[C@@H]2O[C@H](CO)[C@H](OCP(=O)(O)O)[C@H]2O)c(=O)[nH]1	> 100 µM
Nc1ncnc2c1ncn2[C@@H]1O[C@H](CO)[C@H](OCP(=O)(O)O)[C@H]1O	> 100 µM

test system: not listed separately; assay: Selectivity index, ratio of CC50 for cytotoxicity against African green monkey Vero 76 cells to EC50 for antiviral activity against MeV CC strain infected in African green monkey Vero 76 cells by visual analysis; assay type: toxicity, cell-based; conditions: read-out: Ratio CC50/EC50

SMILES	selectivity ratio
Nc1ncnc2c1ncn2[C@@H]1O[C@H](CO)[C@H](OCP(=O)(O)O)[C@H]1O	> 8.3

test system: Influenza A virus; assay: Antiviral activity against influenza A virus H1N1 California/07/2009 infected in dog MDCK cells assessed as reduction in virus induced cytopathic effect incubated for 6 days by neutral red dye based spectrophotometric analysis; assay type: functional, organism-based; conditions: time 6.0 day

SMILES	Activity
Nc1nc2c(ncn2[C@@H]2O[C@H](CO)[C@H](OCP(=O)(O)O)[C@H]2O)c(=O)[nH]1	inactive
Nc1ncnc2c1ncn2[C@@H]1O[C@H](CO)[C@H](OCP(=O)(O)O)[C@H]1O	inactive

test system: not listed separately; assay: Selectivity index, ratio of CC50 for cytotoxicity against African green monkey Vero 76 cells to EC50 for antiviral activity against MeV CC strain infected in African green monkey Vero 76 cells by neutral red dye based spectrophotometric analysis; assay type: toxicity, cell-based; conditions: read-out: Ratio CC50/EC50

SMILES	selectivity ratio
Nc1ncnc2c1ncn2[C@@H]1O[C@H](CO)[C@H](OCP(=O)(O)O)[C@H]1O	> 7.1

test system: Hepatitis B virus; assay: Antiviral activity against Hepatitis B virus; assay type: functional, organism-based; conditions: not given

SMILES	Activity
Nc1nc2c(ncn2[C@@H]2O[C@H](CO)[C@H](OCP(=O)(O)O)[C@H]2O)c(=O)[nH]1	inactive
Nc1ncnc2c1ncn2[C@@H]1O[C@H](CO)[C@H](OCP(=O)(O)O)[C@H]1O	inactive

test system: not listed separately; assay: Cytotoxicity against human Huh-7 cells assessed as reduction in cell viability by visual analysis; assay type: toxicity, cell-based; conditions: not given

SMILES	CC50
Nc1nc2c(ncn2[C@@H]2O[C@H](CO)[C@H](OCP(=O)(O)O)[C@H]2O)c(=O)[nH]1	> 100 µM
Nc1ncnc2c1ncn2[C@@H]1O[C@H](CO)[C@H](OCP(=O)(O)O)[C@H]1O	> 100 µM

test system: Herpesviridae sp.; assay: Antiviral activity against HSV; assay type: functional, organism-based; conditions: not given

SMILES	Activity
Nc1nc2c(ncn2[C@@H]2O[C@H](CO)[C@H](OCP(=O)(O)O)[C@H]2O)c(=O)[nH]1	inactive
Nc1ncnc2c1ncn2[C@@H]1O[C@H](CO)[C@H](OCP(=O)(O)O)[C@H]1O	inactive

test system: dengue virus type 2; assay: Antiviral activity against DENV-2 New Guinea C infected in human Huh-7 cells assessed as reduction in virus induced cytopathic effect incubated for 6 days by neutral red dye based spectrophotometric analysis; assay type: functional, organism-based; conditions: Huh-7, 144 h

SMILES	EC50
Nc1nc2c(ncn2[C@@H]2O[C@H](CO)[C@H](OCP(=O)(O)O)[C@H]2O)c(=O)[nH]1	> 100 µM
Nc1ncnc2c1ncn2[C@@H]1O[C@H](CO)[C@H](OCP(=O)(O)O)[C@H]1O	> 100 µM

test system: enterovirus D68; assay: Antiviral activity against EV-68 US/KY/14-18953 infected in human RD cells assessed as reduction in virus induced cytopathic effect incubated for 3 days by visual analysis; assay type: functional, organism-based; conditions: Enterovirus D, US/KY/14-18953, RD, 72 h

SMILES	EC50
Nc1nc2c(ncn2[C@@H]2O[C@H](CO)[C@H](OCP(=O)(O)O)[C@H]2O)c(=O)[nH]1	47 µM
Nc1ncnc2c1ncn2[C@@H]1O[C@H](CO)[C@H](OCP(=O)(O)O)[C@H]1O	16 µM

test system: enterovirus D68; assay: Antiviral activity against EV-68 US/KY/14-18953 infected in human RD cells assessed as reduction in virus induced cytopathic effect incubated for 3 days by neutral red dye based spectrophotometric analysis; assay type: functional, organism-based; conditions: Enterovirus D, US/KY/14-18953, RD, 72 h

SMILES	EC50
Nc1nc2c(ncn2[C@@H]2O[C@H](CO)[C@H](OCP(=O)(O)O)[C@H]2O)c(=O)[nH]1	40 µM
Nc1ncnc2c1ncn2[C@@H]1O[C@H](CO)[C@H](OCP(=O)(O)O)[C@H]1O	20 µM

test system: dengue virus type 2; assay: Antiviral activity against DENV-2 New Guinea C infected in human Huh-7 cells assessed as reduction in virus induced cytopathic effect incubated for 6 days by visual analysis; assay type: functional, organism-based; conditions: Huh-7, 144 h

SMILES	EC50
Nc1nc2c(ncn2[C@@H]2O[C@H](CO)[C@H](OCP(=O)(O)O)[C@H]2O)c(=O)[nH]1	> 100 µM
Nc1ncnc2c1ncn2[C@@H]1O[C@H](CO)[C@H](OCP(=O)(O)O)[C@H]1O	> 100 µM

test system: not listed separately; assay: Cytotoxicity against human Huh-7 cells assessed as reduction in cell viability by neutral red dye based spectrophotometric analysis; assay type: toxicity; conditions: not given

SMILES	CC50
Nc1nc2c(ncn2[C@@H]2O[C@H](CO)[C@H](OCP(=O)(O)O)[C@H]2O)c(=O)[nH]1	> 100 µM
Nc1ncnc2c1ncn2[C@@H]1O[C@H](CO)[C@H](OCP(=O)(O)O)[C@H]1O	> 100 µM

test system: Measles morbillivirus; assay: Antiviral activity against MeV CC strain infected in African green monkey Vero 76 cells assessed as reduction in virus induced cytopathic effect incubated for 6 days by visual analysis; assay type: functional, organism-based; conditions: Vero 76, 144 h

SMILES	EC50
Nc1nc2c(ncn2[C@@H]2O[C@H](CO)[C@H](OCP(=O)(O)O)[C@H]2O)c(=O)[nH]1	> 100 µM
Nc1ncnc2c1ncn2[C@@H]1O[C@H](CO)[C@H](OCP(=O)(O)O)[C@H]1O	12 µM

test system: Middle East respiratory syndrome-related coronavirus; assay: Antiviral activity against MERS-CoV EMC strain infected in […] cells assessed as reduction in virus induced cytopathic effect incubated for 5 days by neutral red dye based spectrophotometric analysis; assay type: functional, organism-based; conditions: time 5.0 day

SMILES	Activity
Nc1nc2c(ncn2[C@@H]2O[C@H](CO)[C@H](OCP(=O)(O)O)[C@H]2O)c(=O)[nH]1	inactive
Nc1ncnc2c1ncn2[C@@H]1O[C@H](CO)[C@H](OCP(=O)(O)O)[C@H]1O	inactive

test system: not listed separately; assay: Cytotoxicity against human RD cells assessed as reduction in cell viability by neutral red dye based spectrophotometric analysis; assay type: toxicity; conditions: not given

SMILES	CC50
Nc1nc2c(ncn2[C@@H]2O[C@H](CO)[C@H](OCP(=O)(O)O)[C@H]2O)c(=O)[nH]1	> 100 µM
Nc1ncnc2c1ncn2[C@@H]1O[C@H](CO)[C@H](OCP(=O)(O)O)[C@H]1O	> 100 µM

test system: not listed separately; assay: Selectivity index, ratio of CC50 for cytotoxicity against human RD cells to EC50 for antiviral activity against EV-68 US/KY/14-18953 infected in human RD cells by visual analysis; assay type: toxicity, cell-based; conditions: read-out: Ratio CC50/EC50

SMILES	selectivity ratio
Nc1nc2c(ncn2[C@@H]2O[C@H](CO)[C@H](OCP(=O)(O)O)[C@H]2O)c(=O)[nH]1	1.6
Nc1ncnc2c1ncn2[C@@H]1O[C@H](CO)[C@H](OCP(=O)(O)O)[C@H]1O	> 6.3

test system: Measles morbillivirus; assay: Antiviral activity against MeV CC strain infected in African green monkey Vero 76 cells assessed as reduction in virus induced cytopathic effect incubated for 6 days by neutral red dye based spectrophotometric analysis; assay type: functional, organism-based; conditions: Vero 76, 144 h

SMILES	EC50
Nc1nc2c(ncn2[C@@H]2O[C@H](CO)[C@H](OCP(=O)(O)O)[C@H]2O)c(=O)[nH]1	> 100 µM
Nc1ncnc2c1ncn2[C@@H]1O[C@H](CO)[C@H](OCP(=O)(O)O)[C@H]1O	14 µM

test system: not listed separately; assay: Selectivity index, ratio of CC50 for cytotoxicity against human RD cells to EC50 for antiviral activity against EV-68 US/KY/14-18953 infected in human RD cells by neutral red dye based spectrophotometric analysis; assay type: toxicity, cell-based; conditions: read-out: Ratio CC50/EC50

SMILES	selectivity ratio
Nc1nc2c(ncn2[C@@H]2O[C@H](CO)[C@H](OCP(=O)(O)O)[C@H]2O)c(=O)[nH]1	> 2.5
Nc1ncnc2c1ncn2[C@@H]1O[C@H](CO)[C@H](OCP(=O)(O)O)[C@H]1O	> 5

test system: Tacaribe virus; assay: Antiviral activity against TCRV TRVL 11573 strain infected in African green monkey Vero 76 cells assessed as reduction in virus induced cytopathic effect incubated for 7 days by neutral red dye based spectrophotometric analysis; assay type: functional, organism-based; conditions: Mammarenavirus tacaribeense, time 7.0 day

SMILES	Activity
Nc1nc2c(ncn2[C@@H]2O[C@H](CO)[C@H](OCP(=O)(O)O)[C@H]2O)c(=O)[nH]1	inactive
Nc1ncnc2c1ncn2[C@@H]1O[C@H](CO)[C@H](OCP(=O)(O)O)[C@H]1O	inactive

test system: not listed separately; assay: Cytotoxicity against human RD cells assessed as reduction in cell viability by visual analysis; assay type: toxicity, cell-based; conditions: not given

SMILES	CC50
Nc1nc2c(ncn2[C@@H]2O[C@H](CO)[C@H](OCP(=O)(O)O)[C@H]2O)c(=O)[nH]1	73 µM
Nc1ncnc2c1ncn2[C@@H]1O[C@H](CO)[C@H](OCP(=O)(O)O)[C@H]1O	> 100 µM
